{
  "source": "patent US5270190A",
  "about": "“Method for producing (R)-malic acid from maleic acid using microbial maleate hydratase” (priority 1992, dated 1993)",
  "key": {"[1]": {"tested_on": "Brevibacterium helvolum ATCC 11822", "assay": "Growth in basal medium with additions", "type": "cell-based", "conditions": "1% addition to basal medium", "procedure": "(§1) In order to obtain a culture containing a maleate hydratase activity by cultivating microorganism capable of producing this enzyme, usual cultivation methods can be used; namely cultivating in a nutrient medium containing organic compounds as a carbon source, organic and/or inorganic compounds as a nitrogen source, and mineral salts, at pH 4 to 10, at 10° to 40° C. It is preferred to add at least one compound selected from the group consisting of maleic acid and citraconic acid since a culture having high maleate hydratase activity can be obtained by the addition of such compound. The concentration of these compounds to be added in a medium is generally from about 0.1 to 3% by weight, preferably from about 0.5 to 2% by weight. The effect of these compounds is shown in Table 1 hereinbelow and Examples 1 and 2.\n(§2) *Basal Medium: NH4 Cl 0.1%, KH2 PO4 0.14%, Na2"}, "maleate hydratase": {"tested_on": "maleate hydratase", "assay": "Induction of maleate hydratase by additions to the basal medium (specific activity of the cell sonicate supernatant)", "type": "cell-based, Brevibacterium helvolum ATCC 11822", "conditions": "for Specific Activity (amount of (R)-malic acid formed): crude enzyme reacted with maleate at 30° C. for 60 minutes, pH 7.2", "procedure": "as §1, §2\n**Determined by the amount of (R)malic acid formed when reaction mixture\n(total volume 2,000 μl, pH 7.2) containing 50 mM TrisHCl buffer (1,700\nμl), 100 mM maleate (200 μl), and crude enzyme preparation (cells\nsonicate supernatant, 100 μl) was reacted at 30° C. for 60"}, "[2]": {"tested_on": "microbial maleate hydratase", "type": "biochemical"}, "[3]": {"tested_on": "microbial maleate hydratase", "assay": "Action and specificity of the enzyme (substrate)", "type": "biochemical", "excerpt": "The enzyme catalyzes a reaction in which maleic acid is hydrated to form (R)-malic acid."}},
  "note": "Where two headings read alike, the source gives them in different places.",
  "data": [
    {"smiles": "C/C(=C/C(=O)O)C(=O)O", "note": "[Citraconic Acid, citraconic acid]", "values": [
      {"measurement": "Growth at 68 Hours O.D. (660 nm)", "setting": "[1]", "value": 4.1},
      {"measurement": "Specific Activity (amount of (R)-malic acid formed)", "setting": "maleate hydratase; 1% addition to basal medium", "value": 3.13},
      {"measurement": "Induction Fold", "setting": "maleate hydratase; 1% addition to basal medium, relative to no addition (1.0)", "value": 4.8}
    ]},
    {"smiles": "O=C(O)CN(CCN(CC(=O)O)CC(=O)O)CC(=O)O", "note": "[EDTA]", "values": [
      {"measurement": "inhibition of enzyme activity", "setting": "[2]", "value": "no inhibition"}
    ]},
    {"smiles": "O=C(O)CI", "note": "[IAA, iodoacetic acid]", "values": [
      {"measurement": "inhibition of enzyme activity", "setting": "[2]", "value": 12, "unit": "%"}
    ]},
    {"smiles": "O=C(O)/C=C\\C(=O)O", "note": "[Maleic Acid, maleic acid]", "values": [
      {"measurement": "Growth at 68 Hours O.D. (660 nm)", "setting": "[1]", "value": 4.5},
      {"measurement": "Induction Fold", "setting": "maleate hydratase; 1 %", "value": 3.9},
      {"measurement": "Specific Activity (amount of (R)-malic acid formed)", "setting": "maleate hydratase; 1% addition to basal medium", "value": 2.56}
    ]},
    {"smiles": "CCN1C(=O)C=CC1=O", "note": "[NEM, N-ethylmaleimide]", "values": [
      {"measurement": "inhibition of enzyme activity", "setting": "[2]; inhibitor at 10 mM", "value": 33, "unit": "%"}
    ]},
    {"smiles": "[Na+].[O-][I+3]([O-])([O-])[O-]", "note": "[NaIO4, sodium metaperiodate]", "values": [
      {"measurement": "inhibition of enzyme activity", "setting": "[2]; inhibitor concentration 1 mM", "value": 17, "unit": "%"}
    ]},
    {"smiles": "O=C(O)c1cc[c]([Hg][Cl])cc1", "note": "[PCMB, p-chloromercuribenzoic acid]", "values": [
      {"measurement": "inhibition of enzyme activity", "setting": "[2]; inhibitor concentration 1 mM", "value": 100, "unit": "%"}
    ]},
    {"smiles": "O=S(=O)(F)Cc1ccccc1", "note": "[PMSF, phenylmethylsulfonylfluoride]", "values": [
      {"measurement": "inhibition of enzyme activity", "setting": "[2]; inhibitor concentration 1 mM", "value": "no inhibition"}
    ]},
    {"smiles": "O=C(O)/C=C/C(=O)O", "note": "[fumaric acid]", "values": [
      {"measurement": "action of the enzyme on the substance as substrate", "setting": "[3]", "value": "does not act"}
    ]}
  ]
}
